From patent US20210403415A1, “COMPOUNDS AND METHODS TO ATTENUATE TUMOR PROGRESSION AND METASTASIS” (THE TRUSTEES OF INDIANA UNIVERSITY, priority 2018, published 2021)

Columns and labels:
TEAD4 Cys367Ser mutant = biological target: T1, TEAD4 Cys367Ser mutant (Homo sapiens, UniProt Q15561, C367S); assay: Whole protein ESI mass spectrometry, adduct formation with mutant; format: binding; conditions: 10 μM mutant, 200 μM compound, 24 h at 4° C.
T1 construct: TEAD4 (217-434) Cys367Ser mutant and Yap1 (Full-length) were expressed as GST-fusion proteins; made in house; host or cells: E. coli BL-21 (DE3), pGEX-6P-1
T1 sequence (Q15561 217-434 C367S): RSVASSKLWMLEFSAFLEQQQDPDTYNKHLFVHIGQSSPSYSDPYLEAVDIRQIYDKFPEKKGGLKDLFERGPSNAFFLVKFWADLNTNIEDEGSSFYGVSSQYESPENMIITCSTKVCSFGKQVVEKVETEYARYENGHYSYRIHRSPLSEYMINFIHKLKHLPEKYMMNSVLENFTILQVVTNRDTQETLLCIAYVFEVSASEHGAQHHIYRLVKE
Procedure: (§1) The samples were centrifuged at 20,000×g for […] to remove precipitants before being injected into an empty column on an Agilent 1200 liquid chromatography system (Agilent, Santa Clara, Calif.), using 80% Buffer A (H2O, 5 mM NH4OAc) and 20% Buffer B (ACN, 5 mM NH4OAc), and the masses were detected on an Agilent 6520 Accurate Mass Q-TOF.
FIG. 4A illustrates analysis by ESI mass spectrometry after 10 μM TEAD4 Cys367Ser mutant was incubated with 200 μM compound for 24 h at 4° C. FIG. 4B illustrates measurement of fluorescence polarization due to binding when increasing concentration of TEAD4 Cys367Ser mutant was mixed with 16 nM FAM-Yap60-99 peptide (mean±s.d.; n=3). FIG. 4C illustrates measurement of fluorescence polarization due to binding when TEAD4 Cys367Ser mutant was incubated with increasing concentration of compounds for 24 h at 4° C. followed by addition of FAM-Yap60-99 (mean±s.d.; n=3).

CTGF transcript levels = assay: qRT-PCR of CTGF transcript in HEK293 cells; format: cell-based; conditions: HEK293, 48 h
Procedure: HEK293 cells co-transfected the Flag-YAP and myc-TEAD4 constructs were incubated with DMSO or the indicated amount of compounds for 48 h. Total RNA was purified using the RNeasy plus mini kit (QIAGEN, Hilden, Germany) according to the manufacturer's instructions. Complementary DNA was synthesized from 500 ng total RNA with Oligo-dT primers and the Multi-Scribe reverse transcriptase (Fisher, Waltham, Mass.) according to the manufacturer's instructions.
Real-time PCR reactions utilized 100 ng cDNA, 200 nM gene specific primers and the Sensifast No-ROX mix (Bioline, Taunton, Mass.) in a total volume of 20 μl. All measurements were carried out in triplicate using an Eppendorf Mastercycler® RealPlex2. The sequences of primers for CTGF were forward, 5′-TTGGCCCAGACCCAACTA-3 (SEQ ID NO: 1); and reverse, 5′-GCAGGAGGCGTTGTCATT-3′ (SEQ ID. NO: 2). The primer sequences for (3-actin were forward, 5′-TTGGCAATGAGCGGTTCC-3 (SEQ ID NO: 3); and reverse, 5′-[…]-3′ (SEQ ID NO: 4).

[1] = tested on: patient-derived GBM43 glioblastoma spheroids; assay: GBM43 spheroid viability (Alamar blue); format: cell-based, human; conditions: for cytotoxicity at 10 µM: Homo sapiens, GBM43 cell, read-out: inhibition of GBM43 cell viability; for effect on GBM43 cancer cell viability / growth: three-dimensional spheroids
Procedure: Early-passage GBM43 cells were cultured in ultralow adherence plates (Corning Inc.) at 1 to 2×10^3 cells/mL in DMEM supplemented with 1% […] (Invitrogen), 2% B27 (Invitrogen), 25 ng/mL epidermal growth factor (EGF, 25 ng/mL fibroblast growth factor (FGF) (R&D Systems, Inc.), […], 2 ng/mL platelet growth factor, and 100 ng/mL each of penicillin and streptomycin (Invitrogen Inc.). Individual cells were recovered from spheres by incubation with Accutase (Sigma-Aldrich) for 10-15 minutes. Cells (50-100/well) were then seeded in fresh sphere-forming media in 96-well plates. After 2-3 days, Neurospheres containing 6 to 8 cells were treated with compounds 1, 2, and 5.
HEK-293 were cultured in DMEM with glutamine (Cellgro, Manassas, Va.) supplemented with 10% FBS and 1% penicillin/streptomycin in a 5% CO2 atmosphere at 37° C. Tumors were expanded by passage in the flank of NOD/SCIDγnull mice. To generate GBM43 cell lines, tumors were harvested, disaggregated, and maintained in 2.5% FBS for 14 days on Matrigel-coated plates (BD Biosciences) to remove murine fibroblasts. In-vitro GBM43 cell lines were propagated in DMEM with 10% FBS for no more than 7 passages. Cell line identity was confirmed by DNA fingerprint analysis (IDEXX BioResearch) for species and baseline short-tandem repeat analysis testing. GBM43 spheroids were generated by plating early-passage cells at 2.5×10^4 cells per well in 96-well ultralow attachment plates (Corning Inc.) in DMEM/F12 (1:1; GIBCO) supplemented with 2% B27 supplement (GIBCO), 20 ng/mL epidermal growth factor (EGF), and 20 ng/mL fibroblast growth factor (FGF) (Peprotech) for 2 days. The spheroids were then treated with compounds 1, 2, and 5 and growth analyzed by Alamar blue staining.

TEAD4 = TEAD4 (Homo sapiens, UniProt Q15561); assay: Whole protein ESI mass spectrometry, adduct formation; format: binding; set-up: TEAD4 (217-434), TEAD4 (217-434) Cys367Ser mutant and Yap1 (Full-length) were expressed as GST-fusion proteins; GST (N, cleaved yes); made in house; host or cells: E. coli BL-21 (DE3), pGEX-6P-1; conditions: for covalent adduct formation with TEAD4: 10 μM TEAD4, 200 μM compound, 24 h at 4° C.
Chain of TEAD4 (Q15561 217-434): as the sequence (Q15561 217-434 C367S) above, with S151C counted along it
Procedure: as §1
It was determined whether a covalent bond formed between inventive compounds and TEAD4. […] The covalent adduct formation by compound 2 was relatively fast (FIG. 3G), reaching nearly 100% adduct formation after 30 min incubation with TEAD4. Because the rate of inhibition developed over a longer timescale (FIG. 3C), compound 2 is proposed to induce a slow conformational change in TEAD4 that prevents its interaction with Yap1. To rule out the possibility that compound 2 induces slow aggregation of TEAD4, and not the proposed slow conformational change, GST-TEAD4 was incubated with DMSO compound 2 for 24 h at 4° C., followed by injection into an SEC column (FIG. 3H). […] A slight increase in dimer formation for the TEAD4 sample incubated with compound 2 occurred compared to the sample incubated with DMSO. […] Furthermore, it is highly unlikely that Cys-367 oxidation was responsible for the lack of 100% inhibition at longer times since it has been shown that covalent bond formation is rapid and complete within less than an hour.

Row | adduct formation with TEAD4 Cys367Ser mutant (TEAD4 Cys367Ser mutant) | adduct formation with TEAD4 (TEAD4; after 30 min incubation) [%] | Compound | CTGF transcript levels versus control cells (CTGF transcript levels) | cytotoxicity at 10 µM [1] [%] | effect on GBM43 cancer cell viability / growth [1] | covalent adduct formation with TEAD4 (TEAD4)
1 | failed to form an adduct | ~100 | O=C(CCl)c1ccccc1Nc1cccc(C(F)(F)F)c1 [Compound 2, 2-chloro-1-(2-((3-(trifluoromethyl)phenyl)amino)phenyl)ethanone] | significant reduction | 30 | inhibited GBM43 cancer cell viability | a peak at 26229 was observed, corresponding to the TEAD4.compound 2 adduct
2 | formed an adduct |  | O=C(CCl)c1ncccc1Nc1cccc(C(F)(F)F)c1 [Compound 5, 2-chloro-1-(3-((3-(trifluoromethyl)phenyl)amino)pyridin-2-yl)ethanone] | significant reduction | 30 | inhibited GBM43 cancer cell viability | formed more than one covalent complex
